# Assay results: publication PMC9944328 (Nature Communications, 2023)
# Read-outs that look alike come from different tables or passages of the source.
# Molecular target: SSTR2 (Homo sapiens, UniProt P30874)
# Assay: Bystander BRET endosomal trafficking (β-arrestin 1-Nluc, FYVE-mVenus), HEK293 (SSTR2 wild-type);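 note: HEK293 cells coexpressing Nluc-tagged β-arrestin 1 and mVenus-fused FYVE endosomal marker, bystander BRET ratio read after ligand addition, coelenterazine h substrate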
# Type: cell-based
# Set-up: The human full-length SSTRs and mutants were cloned into the pcDNA3.1+ vector; expressed in transfected cells; host or cells: HEK293
# Details: for Emax: HEK293
# [1] = best-fit value, WT-1 (F265A, I284A, K291A blocks)
# [2] = best-fit value, WT-1 (N276A, F294A blocks)
# [3] = best-fit value, WT-2 (F265A, I284A, K291A blocks)
# [4] = best-fit value, WT-2 of N276A block = WT-3 of F294A block
# [5] = best-fit value, WT-3 (F265A, I284A, K291A blocks)
# [6] = best-fit value, WT-3 of N276A block = WT-2 of F294A block
# [7] = Best-fit values, WT-1 (N276A set)
# [8] = Best-fit values, WT-1 (P220A, I130A, F265A sets)
# [9] = Best-fit values, WT-1 (R140A, Y312A sets)
# [10] = Best-fit values, WT-1/-3 (W269A set), WT-2 (N276A set), WT-1 (I284A set)
# [11] = Best-fit values, WT-2 (P220A, I130A, F265A sets)
# [12] = Best-fit values, WT-2 (R140A, Y312A sets)
# [13] = Best-fit values, WT-2 (W269A, I284A sets)
# [14] = Best-fit values, WT-3 (N276A set)
# [15] = best-fit, SSTR2 WT-1 (control in F294A block), run 1
# [16] = best-fit, SSTR2 WT-1 (control in K291A block), run 1
# [17] = best-fit, SSTR2 WT-2 (control in F294A block), run 2
# [18] = best-fit, SSTR2 WT-2 (control in K291A block), run 2
# Experimental: Wild-type or mutant SSTR2, β-arrestin 1-Nluc and FYVE-mVenus were co-transfected in HEK293 cells at a ratio of 1:0.5:4 on six-well plates. The next day, the transfected cells were plated on white 96-well and incubated overnight, and then cells were incubated with 90 µL HBSS containing 20 mM HEPES and coelenterazine h (5 µM) at room temperature for 40 min. After incubation, ligand was added and the signal was measured using the Synergy H1 microplate reader (BioTek) to determine a BRET ratio.
# Sequence of SSTR2 (P30874 whole entry, the tested form may be a part): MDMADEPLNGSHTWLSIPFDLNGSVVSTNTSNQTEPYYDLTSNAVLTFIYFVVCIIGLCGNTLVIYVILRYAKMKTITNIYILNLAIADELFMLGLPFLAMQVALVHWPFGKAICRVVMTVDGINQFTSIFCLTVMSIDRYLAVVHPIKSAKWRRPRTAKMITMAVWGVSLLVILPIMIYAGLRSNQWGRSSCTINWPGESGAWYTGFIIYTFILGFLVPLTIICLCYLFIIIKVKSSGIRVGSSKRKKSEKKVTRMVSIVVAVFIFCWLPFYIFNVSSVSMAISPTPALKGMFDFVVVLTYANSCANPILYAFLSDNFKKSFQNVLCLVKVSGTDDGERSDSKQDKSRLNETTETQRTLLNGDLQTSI
structure (smiles),measurement,setting,value
N#Cc1cccc(-c2ccc3ncc(-c4cc(F)cc(F)c4)c(N4CCC(N)CC4)c3c2)c1O [paltusotine],Fold of WT,"Bystander BRET EC50, SSTR2-WT",1.00
same,EC50,"EC50, Bystander BRET, SSTR2-WT, n=6",122 ± 1.31 nM
same,EC50,"EC50, best-fit value, WT-1 (F265A, I284A, K291A blocks)",40.4 nM
same,EC50,"EC50, best-fit value, WT-1 (N276A, F294A blocks)",250 nM
same,EC50,"EC50, best-fit value, WT-2 (F265A, I284A, K291A blocks)",131 nM
same,EC50,"EC50, best-fit value, WT-2 of N276A block = WT-3 of F294A block",219 nM
same,EC50,"EC50, best-fit value, WT-3 (F265A, I284A, K291A blocks)",58.5 nM
same,EC50,"EC50, best-fit value, WT-3 of N276A block = WT-2 of F294A block",202 nM
same,Emax,,100%
same,Bottom (best-fit),WT-1 (run 1),1.413
same,LogEC50 (best-fit),WT-1 (run 1),-7.394
same,Span (best-fit),WT-1 (run 1),100
same,Top (best-fit),WT-1 (run 1),101.4
same,Bottom (best-fit),WT-2 (run 2),-7.096
same,LogEC50 (best-fit),WT-2 (run 2),-6.882
same,Span (best-fit),WT-2 (run 2),113.5
same,Top (best-fit),WT-2 (run 2),106.4
same,Bottom (best-fit),WT-3 (run 3),-1.006
same,LogEC50 (best-fit),WT-3 (run 3),-7.233
same,Span (best-fit),WT-3 (run 3),104.3
same,Top (best-fit),WT-3 (run 3),103.3
same,Bottom,[1],1.413
same,LogEC50,[1],-7.394
same,Span,[1],100
same,Top,[1],101.4
same,Bottom,[2],-1.996
same,LogEC50,[2],-6.603
same,Span,[2],108.2
same,Top,[2],106.2
same,Bottom,[3],-7.096
same,LogEC50,[3],-6.882
same,Span,[3],113.5
same,Top,[3],106.4
same,Bottom,[4],-1.129
same,LogEC50,[4],-6.66
same,Span,[4],107.2
same,Top,[4],106.1
same,Bottom,[5],-1.006
same,LogEC50,[5],-7.233
same,Span,[5],104.3
same,Top,[5],103.3
same,Bottom,[6],-1.982
same,LogEC50,[6],-6.696
same,Span,[6],107.7
same,Top,[6],105.7
C[C@@H](O)[C@@H]1NC(=O)[C@H](CCCCN)NC(=O)[C@@H](Cc2c[nH]c3ccccc23)NC(=O)[C@H](Cc2ccccc2)NC(=O)[C@@H](NC(=O)[C@H](N)Cc2ccccc2)CSSC[C@@H](C(=O)N[C@H](CO)[C@@H](C)O)NC1=O [octreotide],Bottom,[7],-3.249
same,Span,[7],103
same,Top,[7],99.78
same,Bottom,[8],16.02
same,Span,[8],79.41
same,Top,[8],95.44
same,Bottom,[9],-2.667
same,Span,[9],105.4
same,Top,[9],102.8
same,Span,"Best-fit values, WT-1/-3 (W269A set), WT-2 (N276A set)",83.76
same,Bottom,[10],4.545
same,Top,[10],88.3
same,Bottom,[11],0.5214
same,Span,[11],104.2
same,Top,[11],104.7
same,Bottom,[12],-1.531
same,Span,[12],100.4
same,Top,[12],98.89
same,Span,"Best-fit values, WT-2 (W269A set)",83.11
same,Bottom,[13],7.543
same,Top,[13],90.66
same,Bottom,[14],-1.634
same,Span,[14],102.4
same,Top,[14],100.7
same,Emax,"Bystander BRET, SSTR2-WT, n=6, read-out: Emax",100%
same,Bottom,[15],14.58
same,Span,[15],85.75
same,Top,[15],100.3
same,Span,"best-fit, SSTR2 WT-1 (control in I284A and K291A blocks), run 1",83.76
same,Bottom,[16],4.545
same,Top,[16],88.3
same,Bottom,[17],19.75
same,Span,[17],76.3
same,Top,[17],96.05
same,Span,"best-fit, SSTR2 WT-2 (control in I284A and K291A blocks), run 2",83.11
same,Bottom,[18],7.543
same,Top,[18],90.66
same,Bottom,"best-fit, SSTR2 WT-3 (control in F294A block), run 3",-1.634
